Read-outs that look alike come from different tables or passages of the source.
Molecular target: T1, AhR (Homo sapiens, UniProt P35869)
T1 construct: host or cells: HepG2
T1 sequence (P35869 11-848): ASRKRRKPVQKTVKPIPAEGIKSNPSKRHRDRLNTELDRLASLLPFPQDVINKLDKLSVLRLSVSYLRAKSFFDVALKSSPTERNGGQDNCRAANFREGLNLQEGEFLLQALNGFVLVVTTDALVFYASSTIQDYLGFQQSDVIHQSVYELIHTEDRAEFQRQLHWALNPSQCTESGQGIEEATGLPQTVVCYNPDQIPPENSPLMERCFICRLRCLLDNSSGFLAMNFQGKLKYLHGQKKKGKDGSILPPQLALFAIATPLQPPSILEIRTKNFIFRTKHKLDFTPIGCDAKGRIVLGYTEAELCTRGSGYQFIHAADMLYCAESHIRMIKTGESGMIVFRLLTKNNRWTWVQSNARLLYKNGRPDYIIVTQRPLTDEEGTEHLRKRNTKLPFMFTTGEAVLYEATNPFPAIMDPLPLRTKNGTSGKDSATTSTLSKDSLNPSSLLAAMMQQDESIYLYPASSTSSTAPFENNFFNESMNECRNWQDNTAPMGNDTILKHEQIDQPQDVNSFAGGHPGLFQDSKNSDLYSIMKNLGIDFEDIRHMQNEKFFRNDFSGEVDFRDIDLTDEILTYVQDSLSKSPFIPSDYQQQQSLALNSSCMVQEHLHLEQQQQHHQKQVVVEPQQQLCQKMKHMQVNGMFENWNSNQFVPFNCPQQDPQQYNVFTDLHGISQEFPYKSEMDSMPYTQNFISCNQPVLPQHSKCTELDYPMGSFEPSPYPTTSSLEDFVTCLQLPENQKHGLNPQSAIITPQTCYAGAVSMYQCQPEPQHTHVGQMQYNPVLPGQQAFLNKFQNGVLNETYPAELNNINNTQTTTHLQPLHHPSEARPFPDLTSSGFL
Assay: In vitro assay 1: XRE-luciferase reporter assay, antagonism in human cell line (HepG2)
Type: cell-based
Details: HepG2 XRE-luciferase, 6 hours, read-out: Assay 1: AhR-Luc Human Antagonism (IC50)
Text: In Vitro XRE-Luciferase Reporter Assay (In Vitro Assay 1, 2, 3)
AhR activation leads the induction of target gene expression such as CYP1A1 and CYP1B1 by AhR binding to AhR-responsive DNA elements also known as xenobiotics responsive elements (XRE). The assay for measuring AhR activity herein is the luciferase assay using cell lines transfected with luciferase reporter plasmid containing XREs at the upstream of the reporter gene. Cells transfected with XRE-luciferase reporter (XRE-Luc) plasmid drive luciferase activity reflecting activation and inhibition of AhR in the cells. In addition to transfection with XRE-reporter vector, cells were co-transfected with Nano-luciferase reporter gene construct (Nano-Luc) containing constitutively active promoter as internal control. Kynurenine (an endogenous AhR agonist) was used to stimulate cells to test antagonistic properties of the compounds. The half-maximal inhibitory concentration (IC50) or half-maximal effective concentration (EC50) value was calculated using nonlinear regression (four parameters) with Prism8.0 software (GraphPad).
In Vitro Assay 1: Antagonism in Human Cell Line
HepG2 (human hepatoma cell line) cell line with a XRE-luciferase reporter either transiently or stably (Invivogen) were plated in complete medium and incubated at 37° C. in a CO2 incubator. After 24 hours, cells were treated with kynurenine (50* or 200 μM) alone (negative control) or with test compounds for 6 hours. Luciferase activity was measured with a commercial kit such as the Promega Luciferase kit or other reagents for measuring luciferase activity. Relative luciferase activity (Firefly/Nano-Luc) was used to calculate IC50 values. The relative luciferase activity was further normalized with kynurenine alone group as the maximum control and the vehicle group as the minimum control. (IC50 values are grouped as A, B, C and D, whereby A: IC50<0.01 μM; B: 0.01<IC50<0.1 μM; C: 0.1<IC50<1.0 μM; D: IC50>1.0 μM)

[1] = cells treated with kynurenine 200 μM (no *)
[2] = cells treated with kynurenine 50 μM (*)

O=c1c2cc(-c3ccc(Cl)cc3)nc(-c3cccnc3)c2ncn1C1CCCC(O)C1 (centres unmarked) [Example 63, 6-(4-chlorophenyl)-3-(3-hydroxycyclohexyl)-8-(pyridin-3-yl)pyrido[3,4-d]pyrimidin-4(3H)-one]
IC50 [1]: < 10 nM

O=c1c2cc(-c3ccc(Cl)cc3)nc(-c3cccnc3)c2ncn1[C@@H]1CCCC[C@@H]1O [Example 19]
IC50 [1]: < 10 nM

Cn1cc(-c2nc(-c3ccc(Cl)cc3)cc3c(=O)n([C@@H]4CC[C@H](O)C4)cnc23)cn1 [Example 30, 6-(4-chlorophenyl)-3-((1R,3S)-3-hydroxycyclopentyl)-8-(1-methyl-1H-pyrazol-4-yl)pyrido[3,4-d]pyrimidin-4(3H)-one]
IC50 [1]: 10 to 100 nM

O=c1c2cc(-c3ccc(N4CCOCC4)cc3)nc(-c3cccnc3)c2ncn1C1CCS(=O)(=O)CC1 [Example 78, 3-(1,1-dioxidotetrahydro-2H-thiopyran-4-yl)-6-(4-morpholinophenyl)-8-(pyridin-3-yl)pyrido[3,4-d]pyrimidin-4(3H)-one]
IC50 [1]: < 10 nM

O=c1c2cc(-c3ccc(C(F)(F)F)cc3)nc(-c3cccnc3)c2ncn1C(CO)CO [Example 69, 3-(1,3-dihydroxypropan-2-yl)-8-(pyridin-3-yl)-6-(4-(trifluoromethyl)phenyl)pyrido[3,4-d]pyrimidin-4(3H)-one]
IC50 [1]: < 10 nM

CC(=O)OCC(C)n1cnc2c(-c3ccc(Cl)cc3)nc(Cl)cc2c1=O (centres unmarked) [Example 7, 2-(6-chloro-8-(4-chlorophenyl)-4-oxopyrido[3,4-d]pyrimidin-3(4H)-yl)propyl acetate]
IC50 [2]: > 1000 nM

CC(=O)OC(C)(C)Cn1cnc2c(-c3cccnc3)nc(-c3ccc(Cl)cc3)cc2c1=O [Example 36, 1-(6-(4-chlorophenyl)-4-oxo-8-(pyridin-3-yl)pyrido[3,4-d]pyrimidin-3(4H)-yl)-2-methylpropan-2-yl acetate]
IC50 [1]: 10 to 100 nM

CCC(CO)n1cnc2c(-c3cnn(C)c3)nc(-c3ccc(C(F)(F)F)cc3)cc2c1=O (centres unmarked) [Example 54, 3-(1-hydroxybutan-2-yl)-8-(1-methyl-1H-pyrazol-4-yl)-6-(4-(trifluoromethyl)phenyl)pyrido[3,4-d]pyrimidin-4(3H)-one]
IC50 [2]: > 1000 nM

CC(=O)NCC(C)n1cnc2c(-c3cccnc3)nc(-c3ccc(N4CCOCC4)cc3)cc2c1=O (centres unmarked) [Example 92, N-(2-(6-(4-morpholinophenyl)-4-oxo-8-(pyridin-3-yl)pyrido[3,4-d]pyrimidin-3(4H)-yl)propyl)acetamide]
IC50 [1]: 10 to 100 nM

CC(C)C(CO)n1cnc2c(-c3cccnc3)nc(-c3ccc(C(F)(F)F)cc3)cc2c1=O (centres unmarked) [Example 42, 3-(1-hydroxy-3-methylbutan-2-yl)-8-(pyridin-3-yl)-6-(4-(trifluoromethyl)phenyl)pyrido[3,4-d]pyrimidin-4(3H)-one]
IC50 [1]: > 1000 nM

CC(O)Cn1cnc2c(-c3cnn(C)c3)nc(-c3ccc(C(F)(F)F)cc3)cc2c1=O (centres unmarked) [Example 12, 3-(2-hydroxypropyl)-8-(1-methyl-1H-pyrazol-4-yl)-6-(4-(trifluoromethyl)phenyl)pyrido[3,4-d]pyrimidin-4(3H)-one]
IC50 [2]: < 10 nM

O=c1c2cc(-c3ccc(C(F)(F)F)cc3)nc(-c3cccnc3)c2ncn1[C@@H]1CC[C@H](O)C1 [Example 29, 3-((1R,3S)-3-hydroxycyclopentyl)-8-(pyridin-3-yl)-6-(4-(trifluoromethyl)phenyl)pyrido[3,4-d]pyrimidin-4(3H)-one]
IC50 [1]: < 10 nM

Cn1cc(-c2nc(-c3ccc(C(F)(F)F)cc3)cc3c(=O)n(CC(O)C(F)(F)F)cnc23)cn1 (centres unmarked) [Example 22, 8-(1-methyl-1H-pyrazol-4-yl)-3-(3,3,3-trifluoro-2-hydroxypropyl)-6-(4-(trifluoromethyl)phenyl)pyrido[3,4-d]pyrimidin-4(3H)-one]
IC50 [1]: < 10 nM

O=c1c2cc(-c3ccc(N4CCOCC4)cc3)nc(-c3cccnc3)c2ncn1[C@@H]1CC[C@H](O)C1 [Example 73, 3-((1R,3S)-3-hydroxycyclopentyl)-6-(4-morpholinophenyl)-8-(pyridin-3-yl)pyrido[3,4-d]pyrimidin-4(3H)-one]
IC50 [1]: < 10 nM
